Reference: patent publication US20240287138A1, “CYCLIC PEPTIDES FOR INHIBITING TNF RECEPTOR 1 ACTIVITY” (Merck Sharp & Dohme LLC, priority 2023, published 2024)
Numbered stars: 1 amine (or outer) side, 2 acyl side, 3 side chain; on linkers, the order of the positions; unused ones are H or OH. Bridge positions count the residues as written; N and C are the ends. Square brackets hold non-standard residues; d marks the D form. Peptide text beside a SMILES is read from it. Trp(βS-Me,7-OMe) = COc1cccc2c([C@H](C)[C@H](N)C(=O)O)c[nH]c12; Ala(1-bicyclo(1.1.1)pentyl) = N[C@@H](CC12CC(C1)C2)C(=O)O; Phe(4-CH2COOH) = N[C@@H](Cc1ccc(CC(=O)O)cc1)C(=O)O; Trp(4-Cl) = N[C@@H](Cc1c[nH]c2cccc(Cl)c12)C(=O)O; Trp(7-Cl) = N[C@@H](Cc1c[nH]c2c(Cl)cccc12)C(=O)O; Phe(4-CONH2) = NC(=O)c1ccc(C[C@H](N)C(=O)O)cc1; Phe(4-COOH) = N[C@@H](Cc1ccc(C(=O)O)cc1)C(=O)O; Trp(7-aza) = N[C@@H](Cc1c[nH]c2ncccc12)C(=O)O; Phe(4-CH2NH2) = NCc1ccc(C[C@H](N)C(=O)O)cc1; Trp(1-Me) = Cn1cc(C[C@H](N)C(=O)O)c2ccccc21; Pip(5R-OH) = O=C(O)[C@@H]1CC[C@@H](O)CN1; αMeW = C[C@](N)(Cc1c[nH]c2ccccc12)C(=O)O; X1 = O=C([C@@H]1CC[C@H](N[*:1])C1)[*:2]; 1Nal = N[C@@H](Cc1cccc2ccccc12)C(=O)O; 2Nal = N[C@@H](Cc1ccc2ccccc2c1)C(=O)O; hPhe = N[C@@H](CCc1ccccc1)C(=O)O; 3Pal = N[C@@H](Cc1cccnc1)C(=O)O; 4Pal = N[C@@H](Cc1ccncc1)C(=O)O; NMeE = CN[C@@H](CCC(=O)O)C(=O)O; NMeDab = CN[C@@H](CCN)C(=O)O; Dap(Me) = CNC[C@H](N)C(=O)O; NEtAla = CCN[C@@H](C)C(=O)O; αMeS = C[C@](N)(CO)C(=O)O; NMeA = CN[C@@H](C)C(=O)O; Nle = CCCC[C@H](N)C(=O)O; Dap = NC[C@H](N)C(=O)O; Sar = CNCC(=O)O

Key:
[1] = biological target: T1, human TNFR2 ECD protein (Homo sapiens, UniProt P20333); assay: SPR off-target binding (selectivity) to human TNFR2 ECD
T1 construct: HRV 3C protease cleavage site (C); 6His (C, cleaved yes); made in house; host or cells: Sf21 insect cells (baculovirus), secreted
T1 sequence (P20333 23-257): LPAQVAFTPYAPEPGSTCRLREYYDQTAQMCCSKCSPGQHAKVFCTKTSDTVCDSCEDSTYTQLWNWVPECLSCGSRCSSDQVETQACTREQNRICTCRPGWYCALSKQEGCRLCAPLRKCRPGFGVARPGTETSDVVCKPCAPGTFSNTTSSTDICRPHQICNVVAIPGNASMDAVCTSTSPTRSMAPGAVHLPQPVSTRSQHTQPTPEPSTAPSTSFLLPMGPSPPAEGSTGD
Procedure, shortened: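 Biotinylated human TNFR1 or TNFR2 ECD (C-terminal Avi-tag, Sf21-expressed) captured on a regenerable streptavidin chip; peptide analytes flowed in 10 mM HEPES pH 7.4, 150 mM NaCl, 3 mM EDTA, 0.05% P20, 2% DMSO. kon and koff measured; affinity calculated from the rate constants.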

[2] = biological target: T2, human soluble TNFR1 (sTNFR1) (Homo sapiens, UniProt P19438); assay: Human sTNFR1-peptide displacement assay (LanthaScreen Eu TR-FRET binding assay)
T2 construct: made in house; host or cells: Sf21 (baculovirus)
T2 sequence (P19438 with tags, fused parts or gaps): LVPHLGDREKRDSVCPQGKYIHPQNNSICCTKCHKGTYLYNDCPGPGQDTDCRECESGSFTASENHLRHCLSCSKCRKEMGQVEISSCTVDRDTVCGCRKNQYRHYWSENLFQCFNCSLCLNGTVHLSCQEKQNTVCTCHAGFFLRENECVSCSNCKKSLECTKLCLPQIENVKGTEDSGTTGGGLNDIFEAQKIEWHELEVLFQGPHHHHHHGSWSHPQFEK
Procedure, shortened: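 Readout is the 665/615 nm TR-FRET ratio (Eu anti-His donor, streptavidin-Alexa647 acceptor), normalized to DMSO and saturating displacer, fit by Morrison-based five-parameter logistic for Kd^app. His-tagged sTNFR1 (1-211) prebound to 100 nM biotinylated peptide SEQ ID NO.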

`CCCC[C@@H]1NC(=O)CSC[C@@H](C(N)=O)NC(=O)[C@H](Cc2cn(C)c3ccccc23)NC(=O)CN(C)C(=O)[C@H](Cc2ccc(O)cc2)NC(=O)[C@H](Cc2ccc(C(=O)O)cc2)NC(=O)[C@](C)(CO)NC(=O)[C@H](Cc2c[nH]c3c(Cl)cccc23)NC(=O)[C@H](Cc2ccncc2)NC(=O)[C@H](CC(N)=O)NC(=O)[C@H](CCC(=O)O)N(C)C(=O)[C@H](Cc2c[nH]c3ncccc23)NC(=O)[C@H](CO)NC(=O)[C@H](Cc2ccncc2)NC1=O` [SEQ ID NO. 223] ({CH2CO}-[Nle][4Pal]S[Trp(7-aza)][NMeE]N[4Pal][Trp(7-Cl)][αMeS][Phe(4-COOH)]Y[Sar][Trp(1-Me)]C-NH2; thioether N-14) gave a Kd [1] greater than 1000 nM, an IC50 [2] of 0.39 nM and a Kd [2] of 0.48 nM.

For `CCCC[C@@H]1NC(=O)CSC[C@@H](C(N)=O)NC(=O)[C@](C)(Cc2c[nH]c3ccccc23)NC(=O)CN(C)C(=O)[C@H](Cc2ccc(O)cc2)NC(=O)[C@H](Cc2ccc(CC(=O)O)cc2)NC(=O)[C@](C)(CO)NC(=O)[C@H](Cc2c[nH]c3c(Cl)cccc23)NC(=O)[C@H](Cc2ccncc2)NC(=O)[C@H](CC(N)=O)NC(=O)[C@H](CCC(=O)O)N(C)C(=O)[C@H](Cc2c[nH]c3ncccc23)NC(=O)[C@H](CO)NC(=O)[C@H](Cc2ccc(CN)cc2)NC1=O` [SEQ ID NO. 224] ({CH2CO}-[Nle][Phe(4-CH2NH2)]S[Trp(7-aza)][NMeE]N[4Pal][Trp(7-Cl)][αMeS][Phe(4-CH2COOH)]Y[Sar][αMeW]C-NH2; thioether N-14), the Kd [1] was greater than 1000 nM and the IC50 [2] was 1.7 nM.

For `C[C@H]1C(=O)N[C@@H](CC(N)=O)C(=O)N[C@@H](Cc2ccncc2)C(=O)N[C@@H](Cc2ccc3ccccc3c2)C(=O)N[C@@](C)(CO)C(=O)N[C@@H](Cc2ccc(C(=O)O)cc2)C(=O)N[C@@H](Cc2ccc(O)cc2)C(=O)N(C)CC(=O)N[C@@H](Cc2c[nH]c3ccccc23)C(=O)N[C@H](C(N)=O)CSCC(=O)N[C@@H](CCCCN)C(=O)N[C@@H](Cc2ccncc2)C(=O)N[C@@H](CO)C(=O)N[C@@H](Cc2cccc3ccccc23)C(=O)N1C` [SEQ ID NO. 227] ({CH2CO}-K[4Pal]S[1Nal][NMeA]N[4Pal][2Nal][αMeS][Phe(4-COOH)]Y[Sar]WC-NH2; thioether N-14), the Kd [1] was greater than 1000 nM and the IC50 [2] was 4.02 nM.

`CCCC[C@@H]1NC(=O)[C@@H]2CC[C@@H](C2)NC(=O)[C@H]([C@@H](C)c2c[nH]c3c(OC)cccc23)NC(=O)CN(C)C(=O)[C@H](Cc2ccc(C(N)=O)cc2)NC(=O)[C@H](Cc2ccc(C(N)=O)cc2)NC(=O)[C@](C)(CO)NC(=O)[C@H](Cc2c[nH]c3c(Cl)cccc23)NC(=O)[C@H](Cc2ccncc2)NC(=O)[C@H](CC(N)=O)NC(=O)[C@H](CCC(=O)O)N(C)C(=O)[C@H](Cc2c[nH]c3ccccc23)NC(=O)[C@@H]2CC[C@@H](O)CN2C(=O)[C@H](Cc2ccncc2)NC1=O` [SEQ ID NO. 229] (cyclo([4Pal][Trp(7-Cl)][αMeS][Phe(4-CONH2)][Phe(4-CONH2)][Sar][Trp(βS-Me,7-OMe)][X1][Nle][4Pal][Pip(5R-OH)]W[NMeE]N)) was tested, and the Kd [1] was greater than 1000 nM and the Kd [2] was 0.1 nM.

`CCCC[C@@H]1NC(=O)CSC[C@@H](C(N)=O)NC(=O)[C@](C)(Cc2c[nH]c3ccccc23)NC(=O)CN(C)C(=O)[C@H](Cc2ccc(O)cc2)NC(=O)[C@H](Cc2ccc(C(=O)O)cc2)NC(=O)[C@](C)(CO)NC(=O)[C@H](Cc2c[nH]c3c(Cl)cccc23)NC(=O)[C@H](Cc2ccncc2)NC(=O)[C@H](CC(N)=O)NC(=O)[C@H](CCC(=O)O)N(C)C(=O)[C@H](Cc2c[nH]c3ncccc23)NC(=O)[C@H](CCN)N(C)C(=O)[C@H](Cc2ccncc2)NC1=O` [SEQ ID NO. 231] ({CH2CO}-[Nle][4Pal][NMeDab][Trp(7-aza)][NMeE]N[4Pal][Trp(7-Cl)][αMeS][Phe(4-COOH)]Y[Sar][αMeW]C-NH2; thioether N-14) was tested, and the Kd [1] was greater than 1000 nM and the IC50 [2] was 2.63 nM.

With `CCN1C(=O)[C@H](Cc2c[nH]c3c(Cl)cccc23)NC(=O)[C@H](CO)NC(=O)[C@H](Cc2ccncc2)NC(=O)[C@H](CC23CC(C2)C3)NC(=O)CSC[C@@H](C(N)=O)NC(=O)[C@H](Cc2c[nH]c3ncccc23)NC(=O)CN(C)C(=O)[C@H](Cc2ccc(O)cc2)NC(=O)[C@H](Cc2ccc(C(=O)O)cc2)NC(=O)[C@](C)(CO)NC(=O)[C@H](Cc2c[nH]c3ncccc23)NC(=O)[C@H](Cc2ccc(C(=O)O)cc2)NC(=O)[C@H](CC(N)=O)NC(=O)[C@@H]1C` [SEQ ID NO. 232] ({CH2CO}-[Ala(1-bicyclo(1.1.1)pentyl)][4Pal]S[Trp(7-Cl)][NEtAla]N[Phe(4-COOH)][Trp(7-aza)][αMeS][Phe(4-COOH)]Y[Sar][Trp(7-aza)]C-NH2; thioether N-14) the Kd [1] was greater than 1000 nM, the IC50 [2] was 3.19 nM and the Kd [2] was 2.15 nM.

For `CN1CC(=O)N[C@@H](Cc2c[nH]c3ccccc23)C(=O)N[C@H](C(N)=O)CSCC(=O)N[C@@H](CCc2ccccc2)C(=O)N[C@@H](Cc2ccncc2)C(=O)N[C@@H](CN)C(=O)N[C@@H](Cc2c[nH]c3ccccc23)C(=O)N2CCC[C@@H]2C(=O)N[C@@H](CC(N)=O)C(=O)N[C@@H](Cc2ccncc2)C(=O)N[C@@H](Cc2ccc3ccccc3c2)C(=O)N[C@@](C)(CO)C(=O)N[C@@H](Cc2ccc(C(=O)O)cc2)C(=O)N[C@@H](Cc2cccnc2)C1=O` [SEQ ID NO. 233] ({CH2CO}-[hPhe][4Pal][Dap]W[dP]N[4Pal][2Nal][αMeS][Phe(4-COOH)][3Pal][Sar]WC-NH2; thioether N-14), the Kd [1] was greater than 1000 nM and the IC50 [2] was 2.65 nM.

`CCCC[C@@H]1NC(=O)CSC[C@@H](C(N)=O)NC(=O)[C@](C)(Cc2c[nH]c3ccccc23)NC(=O)CN(C)C(=O)[C@H](Cc2ccc(O)cc2)NC(=O)[C@H](Cc2ccc(C(=O)O)cc2)NC(=O)[C@](C)(CO)NC(=O)[C@H](Cc2c[nH]c3c(Cl)cccc23)NC(=O)[C@H](Cc2ccncc2)NC(=O)[C@H](CC(N)=O)NC(=O)[C@H](CCC(=O)O)N(C)C(=O)[C@H](Cc2c[nH]c3ncccc23)NC(=O)[C@H](CNC)NC(=O)[C@H](Cc2ccncc2)NC1=O` [SEQ ID NO. 235] ({CH2CO}-[Nle][4Pal][Dap(Me)][Trp(7-aza)][NMeE]N[4Pal][Trp(7-Cl)][αMeS][Phe(4-COOH)]Y[Sar][αMeW]C-NH2; thioether N-14) was tested, and the Kd [1] was greater than 1000 nM and the IC50 [2] was 1.92 nM.

With `CN1CC(=O)N[C@@H](Cc2c[nH]c3cccc(Cl)c23)C(=O)N[C@H](C(N)=O)CSCC(=O)N[C@@H](CCC(N)=O)C(=O)N[C@@H](Cc2ccncc2)C(=O)N[C@@H](CO)C(=O)N[C@@H](Cc2c[nH]c3ncccc23)C(=O)N(C)[C@@H](CCC(=O)O)C(=O)N[C@@H](CC(N)=O)C(=O)N[C@@H](Cc2ccncc2)C(=O)N[C@@H](Cc2c[nH]c3c(Cl)cccc23)C(=O)N[C@@](C)(CO)C(=O)N[C@@H](Cc2ccc(C(=O)O)cc2)C(=O)N[C@@H](Cc2ccc(O)cc2)C1=O` [SEQ ID NO. 239] ({CH2CO}-Q[4Pal]S[Trp(7-aza)][NMeE]N[4Pal][Trp(7-Cl)][αMeS][Phe(4-COOH)]Y[Sar][Trp(4-Cl)]C-NH2; thioether N-14) the Kd [1] was greater than 1000 nM, the IC50 [2] was 0.52 nM and the Kd [2] was 0.61 nM.
